From patent US20110039779A1, “IGF-1R BINDING PROTEINS AND ANTAGONISTS” (priority 2007, published 2011)
Several values for one entry are separate records, joined by “and”; a condition that tells them apart may be missing. Equal values may be shown once. Read-outs that look alike come from different tables or passages of the source. Where a SMILES comes first, the peptide text is derived from it.

Columns and labels:
[1] = target: T1, His-tagged soluble recombinant human IGF-IR (srhIGF-1R-his) (Homo sapiens, UniProt P08069); assay: ALPHAScreen competition binding assay, biotinylated hIGF-1
T1 construct: The extra-cellular domain of IGF-1R was obtained as a recombinant protein from R&D Systems; purchased R&D Systems, Inc., Minneapolis, Minn
T1 sequence (P08069 31-736 limits assumed): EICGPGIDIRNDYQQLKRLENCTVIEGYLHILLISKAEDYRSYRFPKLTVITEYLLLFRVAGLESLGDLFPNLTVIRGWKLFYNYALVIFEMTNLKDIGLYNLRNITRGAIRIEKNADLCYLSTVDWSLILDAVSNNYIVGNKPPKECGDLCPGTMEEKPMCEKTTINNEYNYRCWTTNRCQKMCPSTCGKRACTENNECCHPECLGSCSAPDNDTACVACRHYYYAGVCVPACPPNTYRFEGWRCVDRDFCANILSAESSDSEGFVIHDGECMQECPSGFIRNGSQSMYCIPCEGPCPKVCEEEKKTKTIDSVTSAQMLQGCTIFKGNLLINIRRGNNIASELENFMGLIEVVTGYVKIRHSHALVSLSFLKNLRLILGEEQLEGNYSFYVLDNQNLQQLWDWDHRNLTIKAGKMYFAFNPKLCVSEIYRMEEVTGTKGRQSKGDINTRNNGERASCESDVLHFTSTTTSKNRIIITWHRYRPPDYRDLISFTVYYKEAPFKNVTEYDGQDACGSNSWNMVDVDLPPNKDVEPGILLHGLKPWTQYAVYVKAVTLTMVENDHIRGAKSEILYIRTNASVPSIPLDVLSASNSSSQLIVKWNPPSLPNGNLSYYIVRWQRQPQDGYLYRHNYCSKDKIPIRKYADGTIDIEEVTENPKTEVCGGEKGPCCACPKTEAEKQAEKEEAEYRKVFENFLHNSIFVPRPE
T1 sequence (P08069 741-935 limits assumed): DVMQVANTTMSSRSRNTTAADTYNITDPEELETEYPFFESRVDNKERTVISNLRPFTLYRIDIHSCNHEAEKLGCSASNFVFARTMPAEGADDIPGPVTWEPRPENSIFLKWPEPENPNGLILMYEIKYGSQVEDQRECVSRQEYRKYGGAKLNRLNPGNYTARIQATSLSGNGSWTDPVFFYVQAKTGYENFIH
Method: Binding Assays. […] Detection of the receptor ligand interaction was measured in an amplified luminescent proximity homogeneous assay (ALPHAScreen; BioSignal-Packard, Montreal). The assay was performed in 384-well Nunc™ white polystyrene microplates (Nalge Nunc International, Naperville, Ill.) with a final volume of 40 μL. […] Each concentration of competitor was assayed in duplicate. Non-specific binding was determined in the presence of 3×10^−5 M hIGF-1. The second step of the assay was to add acceptor beads and the incubation continued for 0.5 hr. The final step was to add donor beads and the incubation continued for an additional 1 hr. […] Primary data were background corrected, normalized to buffer controls and then expressed as % Specific Binding. The data were fit to a four-parameter non-linear regression analysis (y=min+(max-min)/(1+10̂((log IC50-x)*Hillslope))), which was used to determine IC50 values. The Z′-factor for this assay is greater than 0.7 (Z′=1-(3σ++3σ−)/|μ+−μ−|) and the signal-to-background (SB) ratio was between 40 and 70.

MCF7 cells [2] = target: T2, MCF7 cells (Homo sapiens, UniProt P08069); assay: antagonism assay in starved MCF7 cells, luminescence viability, 72 hrs; assay type: cell-based; conditions: read-out: Cell; Table 11
T2 sequence (P08069 31-736): as the sequence (P08069 31-736 limits assumed) above
Method: Additional binding and antagonism assays using candidate peptides were performed. […] Cell viability was determined by luminescence assay and IC50 was calculated using standard techniques.

SW480 cells = assay type: cell-based
Method: (§1) For cell growth/density studies, a mitochondrial activity assay was used, as exemplified by the following. Cells (SW480, MCF-7S8) were propagated in complete medium (DME: F12, 10% FCS (SW 480) or 5% FCS (MCF-7S8, P/S)), trypsinized, and seeded in 96 well plates as 10,000 cells/well in medium with 0.5% FCS. All wells in the periphery were omitted and only filled with medium. […] All treatments are made in triplicates. […] Treatment was continued for 48 hours (SW480 cells) or 72 hours (MCF-7S8 cells) before quantification of the cell density. Media was exchanged each day. Media and peptides were diluted in DMSO. When measuring cell density, the volume of each well was adjusted to […] Pre-diluted WST-1 (1 ml+1.5 ml DME:F12) was added as 25 μL to each well including background samples. Three wells with media only served as background controls. The cells were incubated for 90 min protected against light in an incubator.

MCF-7S8 cells = MCF-7S8 cells (Homo sapiens, UniProt P08069); assay: cell growth/density, mitochondrial activity assay (WST-1), MCF-7S8; assay type: cell-based; conditions: one experiment only
Sequence of MCF-7S8 cells (P08069 31-736): as the sequence (P08069 31-736 limits assumed) above
Method: as §1

IRS-1 [3] = assay: IRS-1 phosphorylation in MCF7 cells (immunoprecipitation, Western blot); assay type: cell-based, human; conditions: 0.5 nM IGF-1, 10 minutes, peptides 30 μM
Method: Preparation of whole-cell lysates, immunoprecipitation, and Western blot analysis. For qualitative IRS-1 phosphorylation analysis, MCF7 cells in monolayer cultures (about 80% of confluency) were used. […] After treatment, cells were rinsed twice with ice-cold PBS containing 0.2 mM PMSF and 1 mM Na3VO4 (all from SIGMA). Cells were scraped into the same buffer and pelleted by centrifugation at 200 g for 3 min. […] Cell lysates were cleared by centrifugation for 5 min at 14 000 g and the resulting supernatant was snap-frozen in EtOH-dry ice and stored at −80° C. The protein concentration was determined using the Dc Protein Assay Kit (Bio-Rad Laboratories).
Immunoprecipitations were performed with pre-cleared lysates for 4 hours at […] using 0.3-0.5 mg of total protein with 1 μg of polyclonal anti-IRS-1 antibody (Upstate Biotechnology), and 25 μL of Protein A/agarose slurry (SIGMA). Agarose beads with immobilized proteins were washed 3 times with IP wash buffer (50 mM Tris pH 7.5 (GibcoBRL), 150 mM NaCl, 1 mM Na3VO4, 0.2 mM PMSF). […]
Immunoprecipitates were subjected to SDS-PAGE on 4-15% Tris-HCl Ready Gels and transferred to Trans-Blot Transfer Medium nitrocellulose membranes (both from Bio-Rad Laboratories). […] Blots were exposed to an enhanced […] substrate (ECL Western Blotting Analysis System, Amersham Pharmacia Biotech). […]

MCF7 cells [4] = target: T2, MCF7 cells; assay: cell assay (WST-1), antagonism of IGF-1, MCF7; assay type: cell-based; conditions: 5×10^−8 M IGF-1; 72 h; FIG. 10B
Method: (§2) Cell Assays. MCF7 or MiaPaCa cells were plated in 96 well plates at a concentration of 3×10^3 cells/well in 75 μL of serum-free RPMI-1640 and incubated overnight at 37° C. Dilutions of the peptides were prepared in a separate working plate and 75 μL added to the cells. […] Plates were incubated for 48-72 hours at 37° C. Viability was measured by the addition of 10 μL WST-1/well (Roche) as per the manufacturer's instructions.
The cells were treated as described in the materials and methods section. […] The data are presented as percent inhibition and to determine binding kinetic parameters data were fit to a four-parameter logistic equation.

MiaPaCa cells = assay: cell assay (WST-1), antagonism of IGF-1, MiaPaCa; assay type: cell-based, human; conditions: 5×10^−8 M IGF-1; 72 h; FIG. 10C
Method: as §2

[5] = tested on: SGBS adipocytes transfected with HIR-encoding DNA; assay: 3H glucose incorporation (insulin agonist activity) in SGBS adipocytes; assay type: cell-based
Method: Insulin increases uptake of ^3H glucose into adipocytes and its conversion into lipid. Incorporation of ^3H into the lipid phase was determined by partitioning of lipid phase into a scintillant mixture, which excludes water-soluble ^3H products. […] The results are expressed as increase relative to full insulin response.

insulin receptor/IGF-1R = assay: tyrosine phosphorylation of insulin receptor/IGF-1R in L6-hIR cells (Western blot); assay type: cell-based
PKB/Akt = assay: downstream signaling in L6 cells: PKB/Akt; assay type: cell-based; conditions: 3 nM IGF-1, read-out: PKB/Akt, IC50 for down regulation of the stimulation to the basal level
Method: (§3) The tyrosine phosphorylation of IRS signaling (the 180 kDa band on a tyrosine phosphor Western blot) as well as activation of effectors MAPK 44 and 42 and PKB were analyzed by using antibodies specific for their active forms using methods substantially similar to those described in Example 14 of the '246 PCT application.
(§4) The effect of select peptides on downstream signaling (MAPK44, MAPK42, PKB/Akt, IRS-1, and IGF-1R) was also measured by studying the signaling in L6 cells predominantly expressing IGF-1R and very limited insulin receptors. […] The antagonistic effect of the peptides can be seen to affect all the downstream signaling from the IGF-1R.

MAPK44 = assay: downstream signaling in L6 cells: MAPK44; assay type: cell-based; conditions: 3 nM IGF-1, read-out: MAPK44, IC50 for down regulation of the stimulation to the basal level
Method: as §3, §4

MAPK42 = assay: downstream signaling in L6 cells: MAPK42; assay type: cell-based; conditions: 3 nM IGF-1, read-out: MAPK42, IC50 for down regulation of the stimulation to the basal level
Method: as §3, §4

IGF-IR = assay: downstream signaling in L6 cells: IGF-IR; assay type: cell-based; conditions: 3 nM IGF-1, read-out: IGF-IR, IC50 for down regulation of the stimulation to the basal level
Method: as §3, §4

IRS-1 [6] = assay: downstream signaling: IRS-1 tyrosine phosphorylation; assay type: cell-based
Method: as §3, §4

[7] = target: T3, IGF-1R on L6 (with mainly symmetric IGF-1R) (Rattus norvegicus, UniProt P24062); assay: displacement of IGF-1 binding on L6 cells
T3 construct: L6 cells predominantly expressing IGF-1R and very limited insulin receptors; endogenous in cells; host or cells: L6 cells
T3 sequence (P24062 31-737 limits assumed): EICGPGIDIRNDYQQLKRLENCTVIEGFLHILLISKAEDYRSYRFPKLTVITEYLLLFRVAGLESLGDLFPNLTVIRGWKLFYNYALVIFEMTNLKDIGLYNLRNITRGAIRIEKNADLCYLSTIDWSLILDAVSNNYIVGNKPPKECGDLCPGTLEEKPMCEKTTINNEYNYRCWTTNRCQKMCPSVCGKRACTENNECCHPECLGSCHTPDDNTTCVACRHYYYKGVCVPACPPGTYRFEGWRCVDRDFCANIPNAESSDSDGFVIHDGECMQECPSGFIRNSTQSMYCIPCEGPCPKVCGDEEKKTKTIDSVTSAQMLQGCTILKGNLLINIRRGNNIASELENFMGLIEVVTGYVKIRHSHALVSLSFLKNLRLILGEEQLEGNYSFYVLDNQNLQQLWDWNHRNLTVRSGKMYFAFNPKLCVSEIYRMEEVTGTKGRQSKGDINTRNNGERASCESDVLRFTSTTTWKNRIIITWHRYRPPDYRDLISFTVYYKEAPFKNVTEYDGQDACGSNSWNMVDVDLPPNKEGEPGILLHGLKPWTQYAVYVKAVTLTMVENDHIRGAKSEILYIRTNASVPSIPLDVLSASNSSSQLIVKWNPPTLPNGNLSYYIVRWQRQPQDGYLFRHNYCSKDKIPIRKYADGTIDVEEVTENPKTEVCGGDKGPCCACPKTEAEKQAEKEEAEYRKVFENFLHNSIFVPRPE
T3 sequence (P24062 742-1370 limits assumed): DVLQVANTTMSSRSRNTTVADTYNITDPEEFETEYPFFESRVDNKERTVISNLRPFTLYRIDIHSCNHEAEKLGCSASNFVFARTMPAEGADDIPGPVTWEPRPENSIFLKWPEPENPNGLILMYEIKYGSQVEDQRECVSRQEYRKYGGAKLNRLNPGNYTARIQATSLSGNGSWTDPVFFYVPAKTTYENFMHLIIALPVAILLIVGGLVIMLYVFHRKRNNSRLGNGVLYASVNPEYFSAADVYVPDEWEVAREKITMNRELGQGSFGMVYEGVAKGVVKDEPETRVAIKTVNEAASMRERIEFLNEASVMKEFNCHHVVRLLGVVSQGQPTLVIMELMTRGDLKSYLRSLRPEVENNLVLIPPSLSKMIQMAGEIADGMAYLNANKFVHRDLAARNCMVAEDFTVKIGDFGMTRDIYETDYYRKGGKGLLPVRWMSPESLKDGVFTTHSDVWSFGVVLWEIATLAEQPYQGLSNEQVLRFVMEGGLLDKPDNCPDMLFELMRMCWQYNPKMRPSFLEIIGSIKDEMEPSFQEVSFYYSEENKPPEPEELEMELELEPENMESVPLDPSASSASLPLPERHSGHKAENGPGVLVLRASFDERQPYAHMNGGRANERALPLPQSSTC

[8] = tested on: L6 hIR (with mainly hybrid IGF-1R/IR); assay: displacement of IGF-1 binding on L6 hIR cells
Sequence of L6 hIR (with mainly hybrid IGF-1R/IR) (P24062 31-737 limits assumed): as the sequence (P24062 31-737 limits assumed) above
Sequence of L6 hIR (with mainly hybrid IGF-1R/IR) (P24062 742-1370 limits assumed): as the sequence (P24062 742-1370 limits assumed) above

[9] = tested on: IGF-1R, IRS-1, MAPK42/44 and PKB/Akt; assay: IGF-1 induced phosphorylation (IGF-1R, IRS-1, MAPK42/44, PKB/Akt) in L6 and L6 hIR cells, summary in description; assay type: cell-based; conditions: read-out: phosphorylation of IGF-1R and MAPK42/44 in response to IGF-1 treatment, IC50
Method: The activation of HIR or HIGF-1R in adipocytes was measured by stimulating the cells and studying the level of tyrosine phosphorylation (Western blot) of the insulin receptor/IGF-1R. […] The IGF-1R will be present in symmetric homodimer complex as well as in the heterodimer with half insulin receptor.
as §3, §4

[10] = read-out: IC50 in SW480 (M) in presence of IGF-1/alone: in presence of IGF-1, first value of the cell: concentration needed to blunt the effect of 10 nM IGF-1, cells in words only = effect as reported, 48 hours

Work on `CC(C)C[C@H](NC(=O)[C@H](CS)NC(=O)[C@H](CO)NC(=O)[C@H](Cc1ccc(O)cc1)NC(=O)[C@H](Cc1ccccc1)NC(=O)[C@@H](N)[C@@H](C)O)C(=O)N[C@@H](C)C(=O)N[C@@H](CO)C(=O)N[C@@H](CC(C)C)C(=O)N[C@@H](CC(C)C)C(=O)N[C@H](C(=O)NCC(=O)N[C@H](C(=O)N1CCC[C@H]1C(=O)N[C@@H](CCC(N)=O)C(=O)N1CCC[C@H]1C(=O)N[C@@H](CC(N)=O)C(=O)N[C@@H](CCCNC(=N)N)C(=O)NCC(=O)N1CCC[C@H]1C(=O)N[C@@H](Cc1c[nH]c2ccccc12)C(=O)N[C@@H](CCC(=O)O)C(=O)N[C@@H](CCCNC(=N)N)C(=O)N[C@@H](CS)C(=O)N[C@@H](CCCNC(=N)N)C(=O)O)[C@@H](C)O)[C@@H](C)O` [RP6] (H-TFYSCLASLLTGTPQPNRGPWERCR-OH) yielded an IC50 [1] of 2700 nM and an IC50 (MCF7 cells [2]) of 9000 nM.
For “ESYGDCRDRPCGDAPNFYDWFVQQASE [Peptide F270]”, the “IC50 in SW480 (M) in presence of IGF-1/alone: in presence of IGF-1” value (SW480 cells; first value of the cell: concentration needed to blunt the effect of 10 nM IGF-1, cells in words only = effect as reported, 48 hours) was “agonistic?”, the IC50 (SW480 cells; [10]) was 2e-06 M and the “effect on MCF-7” value (MCF-7S8 cells) was “agonistic effects”.
“SFYSCLESLVNGPAEKSRGQWDGCRK [Peptide F250]” was tested, and the IC50 (SW480 cells; [10]) was 2e-06 M and 1e-06 M, the “IGF-1-induced phosphorylation of IRS-1” value (IRS-1 [3]) was “inhibited” and the “competition of IGF-1 binding” value ([1]; FIG. 10A) was “competes IGF-1 binding”. The “antagonism of IGF-1 activity in MCF-7 cells” value (MCF7 cells [4]) was “antagonism of IGF-1 activity in MCF-7 cells” and the “antagonism of IGF-1 activity in MiaPaCa cells” value (MiaPaCa cells) was “antagonism of IGF-1 activity in MiaPaCa cells”.
For “SFYSCLESLVQGPAEKSRGQWEGCRK [Peptide F293]”, the IC50 (SW480 cells; read-out: IC50 in SW480 (M) in presence of IGF-1/alone: alone, second value of the cell: concentration needed to inhibit basal level in 0.5% FCS) was 1e-07 M, the “inhibition of basal growth of SW480, doses” value (SW480 cells; without IGF-1) was “inhibition of basal growth was observed” and the “effect on glucose uptake induced by insulin or IGF-1” value ([5]; SGBS adipocytes, FIGS. 1A and 1B) was “neither peptide F138 nor peptide F293 has any substantial effect on glucose uptake induced by insulin or IGF-1”. The “doses not affecting glucose uptake in response to insulin/IGF-1” value ([5]; SGBS cells) was less than 5 µM, the “inhibition of IGF-1 induced versus insulin induced phosphorylation” value (insulin receptor/IGF-1R) was “more effective on IGF-1 induced phosphorylation as compared to insulin induced phosphorylation” and the “effect on insulin stimulated tyrosine phosphorylation” value (insulin receptor/IGF-1R; 2 μM peptide, 10 min) was “marginal effect”. The “effect on tyrosine phosphorylation by IGF-1” value (insulin receptor/IGF-1R; 2 μM peptide, 10 min) was “inhibited”, the IC50 (PKB/Akt) was greater than 1000 nM and the IC50 (MAPK44) was 500 nM. The IC50 (MAPK42) was 1000 nM, the IC50 (IGF-IR) was 500 nM and the “effect on IGF-1 stimulated IRS-1 phosphorylation” value (IRS-1 [6]; FIG. 4, 10 min) was “clearly inhibits the IGF-1 stimulated IRS-1 phosphorylation”. The IC50 (IRS-1 [6]; L6 cells, 3 nM IGF-1, read-out: IRS-1, IC50 for down regulation of the stimulation to the basal level) was greater than 1000 nM, the “concentration displacing IGF-1 binding to IGF-1R on L6” value [7] was 150 nM and the “concentration displacing IGF-1 binding in L6 hIR” value [8] was 150 nM. The IC50 [9] was 500 nM.
